The CheMixHub drug solubility set

Experiment: xn = mol fraction of the nth substance listed, in the solute-free solvent

O=C(O)c1ccc(C(=O)O)o1 + O + COCCOCCOC
solubility (g/100 g solution)
Conditions | x2 = 0.1 | x2 = 0.2 | x2 = 0.3 | x2 = 0.4 | x2 = 0.5 | x2 = 0.6 | x2 = 0.7 | x2 = 0.8 | x2 = 0.9
303.15 K | 1.37 | 2.07 | 2.83 | 4.05 | 5.13 | 6.23 | 6.17 | 5.55 | 3.4
308.15 K | 1.42 | 2.15 | 2.96 | 4.22 | 5.35 | 6.45 | 6.42 | 5.78 | 3.72
313.15 K | 1.47 | 2.23 | 3.09 | 4.4 | 5.58 | 6.69 | 6.69 | 6.02 | 4.05
318.15 K | 1.53 | 2.34 | 3.23 | 4.59 | 5.79 | 6.96 | 6.97 | 6.3 | 4.34
323.15 K | 1.59 | 2.46 | 3.37 | 4.79 | 6.03 | 7.25 | 7.28 | 6.59 | 4.64
328.15 K | 1.67 | 2.56 | 3.53 | 5 | 6.29 | 7.62 | 7.59 | 6.96 | 4.91
333.15 K | 1.74 | 2.68 | 3.71 | 5.23 | 6.58 | 8.03 | 7.93 | 7.36 | 5.21
338.15 K | 1.84 | 2.83 | 3.88 | 5.46 | 6.96 | 8.47 | 8.33 | 7.78 | 5.51
343.15 K | 1.92 | 2.94 | 4.01 | 5.62 | 7.24 | 8.75 | 8.61 | 8.14 | 5.75
348.15 K | 2 | 3.1 | 4.17 | 5.84 | 7.52 | 9.16 | 9.15 | 8.46 | 6.05
353.15 K | 2.07 | 3.25 | 4.3 | 6.03 | 7.75 | 9.47 | 9.63 | 8.76 | 6.31
